Structures can show the parent of a compound that is named as a salt. Each block holds one compound with its values, some of them ahead of it.
Columns and labels:
[1] = tested on: epithelial sodium channel (ENaC); experiment: Transepithelial Electrical Resistance (TEER) assay, primary CF delF508 or non-CF HBE cells (FIG. 6-9); assay type: cell-based, human
Description: (§1) Primary cultures of CF delF508 or non-CF HBE cells are seeded onto permeable filter supports and grown for 12-14 days for a significant RTE to be measured for TEER assays.
(§2) When the ENaC is active under basal conditions (at least in part due to protease cleavage inside the cell or at the apical membrane), there is a finite RTE that is affected by the Na+ current flowing through ENaC heterotrimers (αβγ or δβγ).

[2] = tested on: epithelial sodium channel (ENaC); experiment: TEER assay, chronic or acute treatment, Non-CF Polarized Human Lobar Bronchial Epithelial Cells; assay type: cell-based; parameters: RTE Before Amil / RTE After Amil: unit not given here; details: for Delta RTE / RTE After Amil / RTE Before Amil: chronic treatment (overnight)
Description: as §1, §2

[3] = target: T1, furin (endogenous protease) in U20S cells (Homo sapiens, UniProt P09958); experiment: Furin cell-based assay (image-based, Golgi-targeted GFP with BMP10 furin/PCSK cleavage site); details: 24-hour incubation, read-out: furin golgi cell pXC50 (converted);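 note: Read-out is mean GFP fluorescence of Golgi puncta per cell by high-content imaging, retained when furin inhibited, over an eleven-point 0.00017–10 µM series, four-parameter fit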
T1 construct: the endogenous protease cleaves GFP; endogenous in cells; host or cells: U2OS cells transduced with a BacMam reporter

[4] = tested on: epithelial sodium channel (ENaC); experiment: Transepithelial fluid transport assay, CF delF508 HBE cells; assay type: cell-based, human
Description: Primary cultures of CF delF508 or non-CF HBE cells are seeded onto permeable filter supports and grown for 7 days for a significant RTE to be measured. Then, apical media is removed to initiate air-fluid interface (AFI) culture. When the cell monolayers are tight to fluid leak from basolateral to apical side of the cell monolayer, they are ready for fluid transport (fluid absorption) measurements.
Two methods are being used to challenge cell monolayers in AFI culture where there is no media in the apical side:
(1) A chronic overnight treatment was performed by adding the protease inhibitors (ENaC inhibitors) into the basolateral media. Then, […] of cell culture media is added to the apical side of each monolayer and fluid absorption measured (by the loss of volume in mls).
(2) An acute treatment was performed when the protease inhibitors (ENaC inhibitors) are added in the apical media in that […] volume (or media only or DMSO equivalents as controls).
In each case, fluid absorption is occurring against a 5× hydrostatic pressure gradient (i.e., there are 500 ml on the basolateral side and […] on the apical side).
When the ENaC is active under basal conditions (at least in part due to protease cleavage inside the cell or at the apical membrane), the absorptive Na+ current flowing through ENaC heterotrimers (αβγ or δβγ) creates an osmotic driving force for fluid absorption.

[5] = target: T2, Furin (108-574-Tev-Flag-His) enzyme (Homo sapiens, UniProt P09958); experiment: Furin enzyme assay; assay type: biochemical
T2 construct: Furin (108-574-Tev-Flag-His) enzyme was expressed and purified from CHO cells; TEV cleavage site (C); FLAG (C); His (C); made in house; host or cells: CHO cells
Summary of the method: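 CHO-expressed, purified furin construct at 40 pM in 100 mM HEPES pH7.5, 1 mM CaCl2, 0.005% Triton X-100. Eleven-point 1:3 series, 0.00017–10 μM final, incubated 2 h at room temperature and read on Envision. pXC50 from four-parameter fit.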

[6] = tested on: TGFβ in mouse lung; experiment: Bleomycin induced lung fibrosis model: TGFβ assay; assay type: in vivo; details: relative to levels induced by Bleomycin in vehicle treated animals, *p < 0.05
Description: (§3) Preclinical pulmonary fibrosis can be induced by single instillation of Bleomycin to the mouse lung. A 15-day Bleomycin protocol was developed to evaluate compounds of the invention in vivo for their ability to inhibit TGFβ secretion and collagen deposition in the mouse lung. On the day before Bleomycin instillation, compounds were administrated to mice based on the appropriate route and frequency. On the study initiation day, under Ketamine (80 mg/kg) and Xylazine (10 mg/kg) anesthesia, all the animals were cannulated oro-tracheally and 50 μL of normal saline (Sham control) or 0.03 U Bleomycin in 50 μL saline (all groups except sham control group) was delivered into the trachea. Compounds were dosed daily until the end of study on Day 15. On termination day, animals were euthanized using CO2 inhalation. The right lung was collected, washed in normal saline, weighed, flash frozen in liquid nitrogen and stored at −80° C. for hydroxyproline (a specific marker for collagen) and TGFβ assays.
(§4) Flash frozen whole right lung tissues were homogenized in 500 μL of RIPA buffer containing PMSF and protease inhibitor cocktail using zirconium oxide bead based homogenizer (Bullet blender Gold, NextAdvance, Germany). Briefly, tissues were spun in the homogenizer at 4° C. for three cycles of 10 minutes each at 1000 g. A complete uniform tissue mixture was obtained using this procedure. The homogenate volume was made up to 1.5 mL by adding 1 mL of RIPA buffer containing PMSF and protease inhibitor cocktail to 500 μL of homogenate. The homogenate was stored as aliquots of 100-500 μL each at −80° C.
Lung tissue homogenates (500 μL) were spun at 13,000 rpm for 20 minutes at 4° C. and supernatants were collected for TGFβ estimation. The assay was performed according to the manufacturer's manual (R&D systems: Cat #SMB100B). Briefly, the lung homogenates were activated by acid activation followed by neutralization to convert latent TGFβ to active TGFβ and the total TGFβ levels in supernatants were measured. Total protein levels in the lung supernatant were also determined.

[7] = tested on: hydroxyproline (a specific marker for collagen) in mouse lung; experiment: Bleomycin induced lung fibrosis model: hydroxyproline assay; assay type: in vivo; details: relative to levels induced by Bleomycin in vehicle treated animals, *p < 0.05
Description: as §3, §4
Acid hydrolysis: 500 μL of the homogenized lung parenchyma was transferred to glass vials, and an equal volume of 12N HCl was added (final concentration of HCl: 6N). The vials were purged with nitrogen gas, sealed and incubated overnight (16 h) under anoxic conditions at 110° C.
Post incubation procedures: 35 μL of the sample from each tube or standard (prepared by serial dilution of hydroxyproline stock solution) was added onto a 96 well plate and the assay was performed as per the kit protocol (Quickzyme Biosciences: Cat #: QZBHYPR05). After the final color development, absorbance was measured by colorimetric analysis at 570 nm (using Thermoscan spectrum (Plate Reader) and results were recorded. Standard curve (linear graph) was generated by using hydroxyproline standards provided in the Quickzyme kit.

[8] = target: furin and PCSK 5/6; details: serpin protease inhibitor; specificity for furin and PCSK 5/6; from Couture et al. 2015; cited from earlier work
[9] = 10 mg/kg, Intra-peritoneal, Twice daily

T1 sequence (P09958 108-794): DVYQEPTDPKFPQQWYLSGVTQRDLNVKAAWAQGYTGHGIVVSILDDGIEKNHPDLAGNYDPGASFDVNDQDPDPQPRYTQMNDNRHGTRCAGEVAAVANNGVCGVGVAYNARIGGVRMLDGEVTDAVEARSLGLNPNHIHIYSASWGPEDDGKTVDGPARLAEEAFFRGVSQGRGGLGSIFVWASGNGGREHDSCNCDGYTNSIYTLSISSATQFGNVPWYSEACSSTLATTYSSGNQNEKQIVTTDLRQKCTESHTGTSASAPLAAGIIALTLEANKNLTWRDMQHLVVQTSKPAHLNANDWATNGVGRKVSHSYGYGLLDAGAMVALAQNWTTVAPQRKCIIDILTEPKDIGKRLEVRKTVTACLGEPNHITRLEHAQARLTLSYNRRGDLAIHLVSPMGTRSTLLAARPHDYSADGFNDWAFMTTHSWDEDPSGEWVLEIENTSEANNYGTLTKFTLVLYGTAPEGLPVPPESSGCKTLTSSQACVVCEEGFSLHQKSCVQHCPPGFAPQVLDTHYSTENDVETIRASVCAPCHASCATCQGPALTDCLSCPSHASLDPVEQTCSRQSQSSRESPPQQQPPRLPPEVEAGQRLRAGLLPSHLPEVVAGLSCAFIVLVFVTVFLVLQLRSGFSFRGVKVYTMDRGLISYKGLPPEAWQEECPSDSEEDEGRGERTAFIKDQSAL
T2 sequence (P09958 108-574): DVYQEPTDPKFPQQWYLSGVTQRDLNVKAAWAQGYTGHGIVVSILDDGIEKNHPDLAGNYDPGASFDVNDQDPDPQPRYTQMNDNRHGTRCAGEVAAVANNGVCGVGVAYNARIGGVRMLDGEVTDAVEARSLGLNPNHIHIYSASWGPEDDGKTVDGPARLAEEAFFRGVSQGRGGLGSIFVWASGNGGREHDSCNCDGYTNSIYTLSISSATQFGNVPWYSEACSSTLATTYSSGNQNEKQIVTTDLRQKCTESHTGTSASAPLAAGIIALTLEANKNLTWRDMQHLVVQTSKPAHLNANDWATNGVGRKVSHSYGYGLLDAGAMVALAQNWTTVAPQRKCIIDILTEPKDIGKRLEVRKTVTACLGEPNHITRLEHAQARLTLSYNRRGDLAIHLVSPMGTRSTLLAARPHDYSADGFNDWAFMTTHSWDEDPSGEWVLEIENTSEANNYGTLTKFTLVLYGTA

Compound: CN(C)C(=O)COC(=O)Cc1ccc(OC(=O)c2ccc(NC(=N)N)cc2)cc1 [Camostat mesylate, reference compound]
inhibitory effect in TEER assay ([1]; compared to Example 11, only mid-μM concentrations partially effective, FIG. 8 and FIG. 9): only partially inhibitory and modestly Inhibitory

Compound: CC(=O)NCC1CCN(Cc2cc(Oc3ccc(N4CCN(CCC(=O)O)CC4)nc3)nc(-c3cc(Cl)cc(Cl)c3)c2)CC1 [Example 11, 3-(4-(5-((4-((4-(Acetamidomethyl)piperidin-1-yl)methyl)-6-(3,5-dichlorophenyl)pyridin-2-yl)oxy)pyridin-2-yl)piperazin-1-yl)propanoic acid, 4 hydrochloride]
acute effect on RTE ([2]; acute treatment, up to 3 μM): equivalent acute effect to Aprotinin and a stronger effect than Camostat
inhibition of amiloride-sensitive RTE delta (remaining ENaC activity) ([2]; acute treatment, up to 3 μM): inhibited amiloride-sensitive RTE delta modestly
effect on the amiloride-sensitive RTE delta ([2]; chronic overnight treatment, 3 μM, P<0.05): equivalent inhibitory effect
Delta RTE ([2]; 0.1 μM): +181 ± 16
RTE After Amil ([2]; 0.1 μM): 697 ± 57
RTE Before Amil ([2]; 0.1 μM): 517 ± 42
Delta RTE ([2]; 0.3 μM): +122 ± 6
RTE After Amil ([2]; 0.3 μM): 548 ± 13
RTE Before Amil ([2]; 0.3 μM): 426 ± 10
Delta RTE ([2]; 1 μM): +133 ± 14
RTE After Amil ([2]; 1 μM): 605 ± 49
RTE Before Amil ([2]; 1 μM): 472 ± 38
Delta RTE ([2]; 3 μM): +63 ± 7
RTE After Amil ([2]; 3 μM): 390 ± 18
RTE Before Amil ([2]; 3 μM): 326 ± 16
EC50 [3]: 25.1 nM
attenuation of rate of fluid lost ([4]; 1 and 3 μM): 50%
attenuation of total fluid volume lost ([4]; 1 and 3 μM): 50%
absorptive fluid transport ([4]; compared to 'DMSO Equivalent' controls, FIG. 10 and FIG. 11): concentration-dependent attenuation of absorptive fluid transport
furin enzyme pIC50 [5]: 9.6
amiloride-induced increase in RTE ([1]; compared to 'Media only' and 'DMSO (LTA)' controls, FIG. 6, *p<0.05): concentration-dependent reduction in amiloride-induced increase in RTE
effectiveness on RTE compared to industry standards ([1]; compared to Camostat at the same concentration and Aprotinin at ˜10 μM, FIG. 7, overlap in CRCs only at 3 μM): more effective
% inhibition of total TGFβ in lung [6, 9]: 69* %
% inhibition of hydroxyproline in lung [7, 9]: 67* %

Compound: CC(=O)NCC1CCN(Cc2cc(Oc3cnc(N4CCN(CCC(C)C(=O)O)CC4)nc3)nc(-c3cc(Cl)cc(Cl)c3)c2)CC1 (stereo not shown) [Example 369, 4-(4-(5-((4-((4-(Acetamidomethyl)piperidin-1-yl)methyl)-6-(3,5-dichlorophenyl)pyridin-2-yl)oxy)pyrimidin-2-yl)piperazin-1-yl)-2-methylbutanoic acid, 4 hydrochloride]
EC50 [3]: 5.01 nM
furin enzyme pIC50 [5]: 9.3
% inhibition of total TGFβ in lung ([6]; 10 mg/kg, Oral, Once daily): 75* %
% inhibition of hydroxyproline in lung ([7]; 10 mg/kg, Oral, Once daily): 62* %

Compound: α1-PDX: "an engineered variant of naturally occurring α-1-antitrypsin serum protease inhibitor"; "a serpin superfamily wide protease inhibitor with high specificity for furin and PCSK 5/6"
Ki [8]: ≥ 0.6 nM

Continued, in another order:

EC50 [3]: 25.1 nM
furin enzyme pIC50 [5]: 8.9
Compound: O=C(O)CC1CCN(Cc2cc(Oc3cnc(N4CCN(CCO)CC4)nc3)nc(-c3cc(Cl)cc(Cl)c3)c2)CC1 [Example 306, 2-(1-((2-(3,5-dichlorophenyl)-6-((2-(4-(2-hydroxyethyl)piperazin-1-yl)pyrimidin-5-yl)oxy)pyridin-4-yl)methyl)piperidin-4-yl)acetic acid]
% inhibition of total TGFβ in lung ([6]; 10 mg/kg, Oral, Once daily): 31* %
% inhibition of hydroxyproline in lung ([7]; 10 mg/kg, Oral, Once daily): 11%

EC50 [3]: 20 nM
furin enzyme pIC50 [5]: 8.9
Compound: O=C(O)CC1CCN(Cc2cc(Oc3cnc(N4CCN5CCC4C5)nc3)nc(-c3cc(Cl)cc(Cl)c3)c2)CC1 (stereo not shown) [Example 334, 2-(1-((2-((2-(1,4-Diazabicyclo[3.2.1]octan-4-yl)pyrimidin-5-yl)oxy)-6-(3,5-dichlorophenyl)pyridin-4-yl)methyl)piperidin-4-yl)acetic acid, 4 hydrochloride]
% inhibition of total TGFβ in lung ([6]; 30 mg/kg, Oral, Once daily): 36* %
% inhibition of hydroxyproline in lung ([7]; 30 mg/kg, Oral, Once daily): 34* %

EC50 [3]: 50.1 nM
furin enzyme pIC50 [5]: 8.7
Compound: CN1CCN(c2cnc(Oc3cc(CN4CCC(CC(=O)O)CC4)cc(-c4cc(Cl)cc(Cl)c4)n3)cn2)CC1 [Example 339, 2-(1-((2-(3,5-Dichlorophenyl)-6-((5-(4-methylpiperazin-1-yl)pyrazin-2-yl)oxy)pyridin-4-yl)methyl)piperidin-4-yl)acetic acid]
% inhibition of total TGFβ in lung ([6]; 10 mg/kg, Oral, Once daily): 22%
% inhibition of hydroxyproline in lung ([7]; 10 mg/kg, Oral, Once daily): 4%

EC50 [3]: 20 nM
furin enzyme pIC50 [5]: 8.8
Compound: CN1CCCN(c2cnc(Oc3cc(CN4CCC(CC(=O)O)CC4)cc(-c4cc(Cl)cc(Cl)c4)n3)cn2)CC1 [Example 340, 2-(1-((2-(3,5-dichlorophenyl)-6-((5-(4-methyl-1,4-diazepan-1-yl)pyrazin-2-yl)oxy)pyridin-4-yl)methyl)piperidin-4-yl)acetic acid]
% inhibition of total TGFβ in lung ([6]; 30 mg/kg, Oral, Once daily): 26* %
% inhibition of hydroxyproline in lung ([7]; 30 mg/kg, Oral, Once daily): 21* %

Source: patent US11773078B2, “Furin inhibitors” (Glaxosmithkline Intellectual Property Development Limited, priority 2018, dated 2023)
